Assay results: US5962516A, “Immunosuppressive compounds and methods” (priority 1999, dated 1999)
Structures can show the parent of a compound that is named as a salt. Where two headings read alike, the source gives them in different places.

Experiments:
[1] = system: IL-1β action on murine thymocytes; assay: Inhibition of IL-1 action (IL-1 assay): suppression of IL-1β + PHA stimulated murine thymocyte proliferation; format: cell-based, mouse (C3H/HeN)
Method: The ability of the above compounds to suppress the cell-proliferative effect of IL-1β in vitro (O'Gara, 1990) was examined as described in Example 11. Mouse thymocytes in culture were stimulated with IL-1β in the presence of phytohemagglutinin (PHA) and increasing concentrations of triptolide (control) and triptolide derivatives. The cells were cultured for 72 hours, and during the last 18 hours, incubated with tritiated thymidine. DNA synthesis was assessed by measuring incorporation of radiolabeled thymidine. The results expressed in terms of IC50 (concentration effective to cause 50% suppression of proliferation) are shown in Table 1.
C3H/HeN mouse thymocytes were prepared and the action of IL-1 together with PHA, which stimulate proliferation of thymocyte, was measured using standard techniques (O'Gara, 1990; Mishell, 1980). Three- to six-week old C3H/HeN male mice (Simonson Laboratory, Gilroy, Calif.) were sacrificed by CO2 inhalation. Thymi were removed, separated from adherent non-thymic tissue, homogenized in Hank's balanced salt solution (HBSS, Gibco) using a glass homogenizer, and centrifuged at 200×g for 10 minutes at 15° C. Following an additional wash in HBSS, the thymocytes were resuspended in RPMI 1640 medium containing 50 uM 2-mercaptoethanol, 2 mM glutamine, 1 mM sodium pyruvate, non-essential amino acids 100 U/ml penicillin, 100 μg/ml streptomycin, and 10% heat-inactivated fetal bovine serum.
Cells were cultured in round-bottom 96 well microtiter tissue culture plates, 6×10^5 cells per well, in a volume of 100 μl. Recombinant human IL-1β (R & D Systems #201-LB) together with Phytohemagglutinin P (PHA, Pharmacia) were added to the cells in volume of 25 μl per well to achieve a final concentration of 0.08 ng/ml and 10 μg/ml, respectively. Samples were dissolved in DMSO (10 mg/ml), then diluted in culture medium. Twenty five microliters of the test sample was added to each well to achieve the final compound concentrations for each experiment. Cells with PHA together with IL-1 served as controls. The total volume for each well was 150 μl.
Plates were incubated at 37° C. in a 5% CO2 incubator for 72 hours. Fifty microliters of culture medium containing 0.5 μCi (^3 H)-thymidine (Amersham, 49 Ci/mmol) was added to each well prior to the last 18 hours of incubation. Cells were then harvested and counted. The results were reported as counts per minute (cpm) per 6×10^5 cells.
The following formula was used to calculate the percent of suppression of IL-1 activity, and IC50 (concentration of sample yielding 50% suppression of proliferation) was used to indicate the suppressive activity of the sample.
% suppression of IL-1 activity=(1-sample cpm/(IL-1+PHA control

[2] = system: mixed lymphocyte reaction (spleen cells from female C57BL/6 mice, stimulated with Balb/C spleen cells); assay: Mixed lymphocyte reaction (MLR) assay; format: cell-based, mouse; conditions: 50% suppression of proliferation; for IC50: read-out: MLR Assay IC50
Method: Inhibition of cell proliferation by the subject compounds was assayed in the mixed lymphocyte reaction (MLR) (Bradley, 1980; Mishell, 1980). Spleen cells from female C57BL/6 mice, the "responder" cells, were prepared and co-cultured alone or in the presence of varying concentrations of the test compounds, with irradiated spleen cells prepared from female Balb/C mice, the "stimulator" cells. Prior irradiation of the stimulator cells rendered them unable to proliferate. A sample of the responder cells was also irradiated for use as a control. The non-irradiated responder cells proliferate in the presence of the allogenic stimulator cells. After a 78-hour incubation, tritiated thymidine was added to the mixed cell cultures, and incorporation of the labeled nucleotide into DNA was measured as an index of cell proliferation.
In this study, the responder cells (R) were spleen cells from female C57BL16 mice, and the stimulator cells (S) were spleen cells from female Balb/C mice 6 to 8 weeks of age (Jackson, Bar Harbor, Me.). The spleens were aseptically removed from the mice and placed into 10 ml of cold HBSS in a sterile petri dish. The spleen was cut in half and gently pressed between the frosted ends of 2 sterile microslides. The cell suspension was then filtered through sterile nylon mesh (Nytex, Tetco #HD-3-85) into a 15 ml conical polypropylene centrifuge tube and centrifuged at 200×g for 10 minutes in a Beckman GPR tabletop centrifuge (GH-3.7 Rotor). Following an additional wash in HBSS, the spleen cells were resuspended in RPMI 1640 medium (Gibco) containing 50 uM 2-mercaptoethanol, 2 mM glutamine, 100 U/ml penicillin, 100 μg/ml streptomycin and 10% heat-inactivated fetal bovine serum.
The stimulator cells (S) and part of the responder cells (R) were diluted at 10×10^6 cells/ml and irradiated at 20 cGy with a Cesium Irradiator (Department of Radiation Oncology, Stanford University, California) to inhibit proliferation. The irradiated cells were washed once to remove any toxic free radicals and their products resulting from irradiation. The responder cells (R), irradiated stimulator cells (Sx) and irradiated responder cell (Rx) were all diluted to 4×10^6 cells/ml.
In the assay, 4×10^5 cells of R were cocultured with 4×10^5 cells of Sx in 200 μl of medium in round bottom 96 well tissue culture plates. Fifty micro-liters of test samples at various concentrations were added to the cells. The wells receiving no test samples would get the maximum proliferation. Several controls were used in the assay. The irradiated responder cells (Rx) were also added to the responder cells with and without the test samples. Rx or Sx alone were checked to make sure no proliferation occurred after irradiation. The spontaneous proliferation of R was also measured.
The culture plates were incubated at 37° C. in a 5% CO2 incubator for four days. The cells were labelled with 1 μCi of (^3 H)-thymidine (Amersham, 49 Ci/mmol) in 20 μl of medium for the last 18 hours. Cells were then harvested and counted. The results were reported as counts per minute (cpm) per well. Percent of suppression and IC50 (concentration of sample producing 50% suppression of proliferation) were used to indicate the suppressive activity of the sample. Sample cpm was calculated as (R+Sx+sample)cpm-(R+Rx+sample)cpm; control cpm was calculated as (R+Sx)cpm-(R+Rx)cpm. Percent suppression of MLR activity was calculated as (1-sample cpm/control cpm)×100. IC50 was determined from percent suppression to indicate the suppressive activity of the sample.

[3] = 50% suppression of proliferation; 72 h culture
[4] = read-out: IL-1 Assay IC50; 50% suppression of proliferation; 72 h culture

| SMILES | IL-1 Assay IC50 [1, 3] | IC50 [1, 4] | MLR Assay IC50 [2] | IC50 [2] | further results |
| --- | --- | --- | --- | --- | --- |
| CC(C)C12OC1C1OC13C1(C)CCC4=C(COC4=O)C1CC1OC13C2OC(=O)CCC(=O)O (stereo not drawn) [YM-274, Triptolide Succinate Sodium Salt] |  |  |  |  | IL-1 Assay IC50 ([1]; 50% suppression of proliferation; 72 h culture; Succinate Sodium Salt): 0.181 mg/L; IC50 ([1]; read-out: IL-1 Assay IC50; 50% suppression of proliferation; 72 h culture; Succinate Sodium Salt): 0.376 µM; MLR Assay IC50 ([2]; Succinate Sodium Salt): 0.09 mg/L; IC50 ([2]; Succinate Sodium Salt): 0.187 µM |
| CC(C)C12OC1C1OC13C1(C)CCC4=C(COC4=O)C1CC1OC13C2OC(=O)CCC(=O)O (stereo not drawn) [YM-262, Triptolide Succinate] | 0.181 mg/L | 0.393 µM | 0.086 mg/L | 0.187 µM |  |
| CC(C)[C@]12O[C@H]1[C@@H]1O[C@]13[C@]1(O[C@H]1C[C@H]1C4=C(CC[C@@]13C)C(=O)OC4)[C@@H]2O [Triptolide, triptolide, reference compound] |  |  |  |  | inhibition of IL-1β action in words [1]: potent inhibitor of IL-1β action; IC50 ([1]; 50% suppression of proliferation; 72 h culture; read-out: IL-1 Assay IC50): ~0.005 µM; IC50 ([2]; Mus musculus, Lymphocyte): 0.0009 mg/L |
| CC(C)C12OC1C1OC13C1(C)CCC4=C(COC4=O)C1CC1OC13C2OC(=O)CCC(=O)O (stereo not drawn) [YM-273, Triptolide Succinate Tris Salt] | 0.462 mg/L | 0.8 µM | 0.18 mg/L | 0.31 µM |  |
